Consider one compound from US20220409573A1, “Hippocampus Regeneration And Memory Recovery” (INNOBIOSCIENCE, LLC, priority 2021, published 2022).

Entries after “also recorded” stand apart in the source; their conditions may differ.

Experiment [1] has as its system Wnt/β-catenin pathway in hippocampal slices. Briefly: β-catenin, GSK-3β and Dvl-3 western blot in hippocampal slices of wild-type mice. It counts as cell-based. The method, then: Slice preparation. […] Transverse slices (250-300 μm) from the dorsal hippocampus were cut under oxygen-saturated cold artificial cerebrospinal fluid using a Vibroslice microtome (VSL, World Precision Instruments, Inc WPI, Sarasota, Fla.). After obtained, slices were incubated in ACSF for at least than one hour at room temperature, in order to stabilize activity.
Immunoblotting. […] Briefly, tissues were homogenized in RIPA buffer (10 mM Tris-Cl, pH 7.4, EDTA 5 mM, 1% NP-40, 1% sodium deoxycholate, and 1% SDS) supplemented with a protease inhibitor mixture (1 mM PMSF, 2 μg/mL aprotinin, 1 μg/mL pepstatin and 10 μg/mL benzamidine) and phosphatase inhibitors (25 mMNaF, 100 mM Na3VO4, 1 mM EDTA and 30 μM Na4P207) using a Potter homogenizator and then passed sequentially through different caliber syringes. […] Protein concentration was determined using the BCA Protein Assay Kit (Pierce). […] The reactions were followed by incubation with anti-mouse, anti-goat or anti-rabbit IgG peroxidase conjugated (Pierce, Rockford, Ill.) and developed using an ECL kit (Western Lightning Plus ECL, PerkinElmer).

The test system of experiment [2] is APPswe/PS-1 double transgenic mice. In words: Classical Morris Water Maze test. As to conditions: 12 month-old APPswe/PS-1 mice, 2.0 mg/kg IP three times per week, four weeks, vs Tg control. The experiment is classed as in vivo.
For experiment [3], the system named is CA3-CA1 transmission in the hippocampus of APPswe/PS-1 mice. Briefly: LTP by TBS in hippocampal CA1 slices from treated APPswe/PS-1 mice. It counts as in vivo. As to conditions: slices from the two sets (7- and 12-month-old) of treated APPswe/PS-1 mice.
In experiment [4] the test system is dentate gyrus of the hippocampus of wild-type mice. Briefly: Adult hippocampal neurogenesis (Ki67, DCX immunofluorescence). The experiment is classed as in vivo. As to conditions: for percentage of the granular cell layer covered by DCX staining / total number of Ki67+ cells in the SGZ: vs vehicle, 2 mg/kg. The method, then:
Animals. Two-month-old C57BC6 wild-type mice were treated and handled according to National Institutes of Health guidelines (NIH, […], Md.). The treatments were performed by intraperitoneal (ip) injection of 2.0 mg/kg ANDRO and wild-type control animals were injected only with saline solution as vehicle.
Perfusion and postfixation. Mice were anesthetized (100 μg ketamine+10 μg xylazine in 10 μl saline/g), and then transcardially perfused with saline, followed by 4% paraformaldehyde (PFA) in 0.1M PBS. The brains were removed and incubated inPBS-4% PFA for 24 h at room temperature, dehydrated in 30% sucrose andkept at 4° C. until analysis.
Tissue sectioning. After dehydration,each mouse brain was sectioned on a cryostate in 12 sets of serial coronal sections of 40 μm thickness (Leica Microsystems,Wetzlar, Germany) and collected in ice-cold-PBS in multiwell dishes.Each set contained 5-7 sections covering the entire length of the hippocampus.
Inmunofluorescence for Ki67 and Doublecortin (DCX). Sections were washed with PBS 3 times for 5 min and then incubated in blocking solution (3% donkey serum, 3% BSA, 0.5% Triton X-100 in PBS) for 4 h. Then, tissues were incubated overenight with primary antibodies at 4° C. Primary antibodiesused were:rabbit anti-Ki67 (Abcam), rabbit anti-DCX (Cell Signaling Technology Inc., Beverly, Mass., USA), monoclonal anti-NeuN (Millipore, Billerica, Mass., USA). After washing 3 times with 0.5% Triton X-100 PBS, sections were incubated with Dy Light (Abcam) conjugated secondary antibodies for 2 h at room temperature. Slices were mounted on gelatin-coated slides with Fluoromont-G(Electron Microscopy Sciences, Hatfield, Pa., USA). For quantification, Ki67 positive cells were countedusing a fluorescence microscope (Olympus BX51, Tokyo, Japan). Cells were counted in all sections of one set (see tissue sectioning). Total cells counted in one set were multiplied by the total number of sets to obtain an estimation of the total number of Ki67+ cells in the complete hippocampus. For quantification of the % area covered by DCX, double labeling DCX/NeuN was carried. The total area of the granular cell layer was estimated as the area positive for NeuN staining and the percentage of this area covered by DCX staining was estimated. This image analysis was carried out using the ImageJ software (NIH, USA). Images shown were analyzed by confocal laser microscopy (Olympus FV 1000) and z-projections were generated with ImageJ software.

In experiment [5] the test system is AT8-positive neurons in APPswe/PS-1 mice. Briefly: AT8 immunohistochemistry in treated APPswe/PS-1 mice. It counts as in vivo.
Experiment [6] concerns CA3-CA1 connections in hippocampal slices. In words: Electrophysiology in Wt hippocampal slices (fEPSP, PPF, LTP, LTD). It counts as cell-based, mice. The method, then:
Slice Preparation and Electrophysiology. […] Slices were transferred to an experimental chamber (2 ml), superfused (3 ml/min, at 20-22° C.) with gassed ACSF and visualized by trans-illumination with a binocular microscope (MSZ-10, Nikon, Melville, N.Y.). To evoke field excitatory postsynaptic potentials (fEPSPs), we stimulate with bipolar concentric electrodes (Platinum/Iridium, 125 μm OD diameter, FHC Inc., Bowdoin, Me.) generated by a stimulator (Axon 700b, Molecular Devices, Sunnyvale, Calif.) and connected to an isolation unit (Isoflex, AMPI, Jerusalem, Israel) . The stimulation was in the Stratum Radiatum within 100-200 μm from the recording site. The paired pulse facilitation index was calculated by ((R2−R1)/R1), where R1 and R2 were the peak amplitudes of the first and second fEPSP respectively. To generate LTP we used Theta Burst Stimulation (TBS) consisting of 5 trains of stimulus with an inter-train interval of 20 s. Each train consisted of 10 bursts at 5 Hz and each burst having 4 pulses at 100 Hz. To generate LTD we used Low Frequency Stimulation (LFS) consisting in 900 paired pulses at 1 Hz. Recordings were filtered at 2.0-3.0 kHz, sampled at 4.0 kHz using an A/D converter, and stored with pClamp 10 (Molecular Devices). Evoked postsynaptic responses were analyzed off-line, using an analysis software (pClampfit, Molecular Devices), which allowed visual detection of events, computing only those events that exceeded and arbitrary threshold.

Where [7] appears, read: 2-month-old mice, 2 mg/kg i.p. 3 times per week for 4 weeks.

On to `C=C1CC[C@@H]2C(C)(CO)[C@H](O)CC[C@@]2(C)C1C/C=C1/C(=O)OC[C@H]1O` (stereo in doubt) [ANDRO, 3-(2-(Decahydro-6-hydroxy-5-(hydroxymethyl)-5,8a-dimethyl-2-methylenenaphthyl)ethylidene)dihydro-4-hydroxyfuran-2(3H)-one], for which, in experiment [1] (5 μM ANDRO, Wnt3a conditioned medium or 10 nM 6-BIO, up to 1 h), the “time at which total levels of β-catenin increased” value turned out to be 15 min. Besides, the “rate of increase of GSK3β Ser-9 and decrease of Tyr-216 phosphorylation” value in experiment [1] (compared to Wnt-3a treatment) is reported as “faster”. In addition, the “mobility shift (phosphorylation) of Dvl-3” value in experiment [1] (hippocampal slices, 1 h) is listed as “does not induce a mobility shift of Dvl-3”. Further, in experiment [2], the escape latency result is given as “significantly lower escape latency values”. Also, the LTP induction result in experiment [3] is listed as “recovery in the capacity to induce a LTP; also recorded: have the property to induce a LTP that is maintained for 1 h”. Further, the “density of immature neurons positive for DCX” value in experiment [4] (setting [7]) was “increase in the density of immature neurons”. Besides, the “percentage of the granular cell layer covered by DCX staining” value is recorded as “significantly increased” in experiment [4] (setting [7]) and “significant increase in the percentage of the granular cell layer area covered by DCX staining” in experiment [4] (2-month-old mice, 2 mg/kg i.p. 3 times per week for 4 weeks, listed as Andro). In addition, the “total number of Ki67+ cells in the SGZ” value in experiment [4] (setting [7]) is recorded as “significantly increased the total number of Ki67^+ cells”; in experiment [4] (2-month-old mice, 2 mg/kg i.p. 3 times per week for 4 weeks, listed as Ando), “significant increase in the total number of Ki67^+ cell”. Further, in experiment [4] (compared to control mice), the “morphology of DCX+ cells” value was “more complex morphology”. For the same compound, the “number of AT8-positive neurons next to amyloid deposits” value in experiment [5] (6 month-old APPswe/PS-1 mice, circular area surrounding plaques) was “clear decrease in the number of AT8-positive neurons”. Also, the “total AT8-positive cells outside the circular area around the plaques” value in experiment [5] (hippocampus) is reported as “decrease in the number of these cells”. Further, the “fEPSP amplitude (basal synaptic transmission)” value in experiment [6] (ANDRO (5 μM), 30 min, Wt slices) is “increased the fEPSP amplitude”. Further, the “paired pulse facilitation (PPF) ratio” value in experiment [6] (Wt slices) is on record as “does not increase PPF ratio”. For the same compound, the “LTP induction or maintenance” value in experiment [6] (Wt slices in presence of ANDRO, TBS) is “do not observed alteration in the LTP induction or maintenance”. For the same compound, in experiment [6] (hippocampal slices, 6-BIO 10 nM), the “induction of LTD (fEPSP slope after LFS)” value is recorded as “LTD was inhibited”.
